In one series the test system is IMQ induced psoriasis. As to the method: Test Item Details • 1. Dexamethasone Cat. or Batch no.: BCBM4557V (sigma) • Vehicle for dexamethasone (Veh.1): acetone:ethanol (1:1) • Dose: 0.1 mg/ear & 0.25 mg in back skin • Dose volume: 20 μL/ear & 50 μL on back skin • 2. Crisaborole: PZ0037 (Sigma) • Vehicle (Veh.1): acetone:ethanol (1:1) • Dose: 0.1 mg/ear & 0.25 mg in back skin • Dose volume: 20 μL/ear, 50 μL on back skin • 3. Compound of Formula (I) • Vehicle (Veh.1): acetone:ethanol (1:1) • Dose: 0.1 mg/ear & 0.25 mg in back skin • Dose volume: 20 μL/ear, 50 μL on back skin Dexamethasone and Test Item Preparation and Application: • Strength=5 mg/ml
Application=100 μg/20 pit per each ear+250 μg/50 μL on the back G2 to G4 receive Dexamethasone, Crisaborole or test item: Daily topical treatment (D0-D6): 0.1 mg in 20 μl per ear x both the ears+0.25 mg in 50 μl (on the back) 6-8 hrs after IMQ application.
Disease Induction: Application of 5% IMQ cream 40 mg (back) and 5 mg (per ear—Inner surface) daily from day 0-6.
Treatment: 0.5% Dexamethasone solution: 0.25 mg (back) and 0.1 mg (per ear) 8 hrs post IMQ. • Day −2—Depilation on back region • Day 0—Observations (Body weight; ear thickness using digital microcaliper) • Day 2—Observations (Body weight; ear thickness using digital microcaliper) • Day 4—Observations (Body weight; ear thickness using digital microcaliper) • Day 6—Observations (Body weight; ear thickness using digital microcaliper); Blood collection (PK) and Termination {2 hrs after last dose) • Ear collection: PK, Cytokine, MPO, Thickness • Back skin collection, scoring and thickness measurement • Histopathology (optional)
The dorsal posterior area (2 cm×2 cm) of animals is depilated using a hair trimmer. 5% Imiquimod cream: 50 mg/animal (40 mg on the shaved back+5 mg each on the inner part of right and left ear) QD is applied on days 0 to 5 (Groups 1-4).
The body weight is recorded individually for all animals at receipt, day of randomization, prior to treatment, and once in two days thereafter. The animals are observed for mortality at regular intervals.
2 hrs post compound treatment on day 6, all the animals are euthanized, and ear tissues are collected. The right ear is flash frozen in liquid nitrogen and stored at −80° C. until homogenization for MPO and cytokine estimation.
The half of the left ear is used for drug concentration measurement. The other half of the left ear tissue is used for histopathology. The back skin is collected for visual assessment (scoring) and histopathology.
MPO analysis: Snap frozen ear tissue samples are homogenized in 1× assay buffer provided in the kit. The homogenates are centrifuged at 8000 g for 10 minutes in a refrigerated centrifuge. The supernatants are discarded, and the pellet is resuspended in solubilisation buffer (1× assay buffer containing 0.5% HTABr). The samples are homogenized and subjected to three rounds of freeze thaw followed by brief sonication for 10s. The samples are centrifuged at 12,000 g for 10 minutes in a refrigerated centrifuge and the resulting supernatants are analysed for MPO levels based on a fluorometric detection kit. The Kit utilizes a non-fluorescent detection reagent, which is oxidized in the presence of hydrogen peroxide and MPO to produce its fluorescent analogue. (Enzo Life Sciences; ADI-907-029).
Histopathology: At study termination, posterior dorsal skin and ear skin samples are collected. Skin samples are processed using routine histopathological methods and 4-5 μm paraffin sections are prepared. Tissue sections (3 serial sections/animal) are stained with Hematoxylin and eosin (H&E) to evaluate acanthosis, hyper/parakeratosis and inflammatory cellular infiltration in dermis. Severity of lesions are assessed semi quantitatively on a scale of 0-4 by two independent pathologists (0—normal, 1—mild degree, 2—moderate degree, 3—severe degree and 4—extensive or multiple locations) for each parameter in a blinded manner.

The target in series [1] is T1, Phosphodiesterase PDE11A4 (Homo sapiens, UniProt Q9HCR9).
T1 construct: host or cells: insect Sf9 cells
T1 sequence (Q9HCR9 whole entry): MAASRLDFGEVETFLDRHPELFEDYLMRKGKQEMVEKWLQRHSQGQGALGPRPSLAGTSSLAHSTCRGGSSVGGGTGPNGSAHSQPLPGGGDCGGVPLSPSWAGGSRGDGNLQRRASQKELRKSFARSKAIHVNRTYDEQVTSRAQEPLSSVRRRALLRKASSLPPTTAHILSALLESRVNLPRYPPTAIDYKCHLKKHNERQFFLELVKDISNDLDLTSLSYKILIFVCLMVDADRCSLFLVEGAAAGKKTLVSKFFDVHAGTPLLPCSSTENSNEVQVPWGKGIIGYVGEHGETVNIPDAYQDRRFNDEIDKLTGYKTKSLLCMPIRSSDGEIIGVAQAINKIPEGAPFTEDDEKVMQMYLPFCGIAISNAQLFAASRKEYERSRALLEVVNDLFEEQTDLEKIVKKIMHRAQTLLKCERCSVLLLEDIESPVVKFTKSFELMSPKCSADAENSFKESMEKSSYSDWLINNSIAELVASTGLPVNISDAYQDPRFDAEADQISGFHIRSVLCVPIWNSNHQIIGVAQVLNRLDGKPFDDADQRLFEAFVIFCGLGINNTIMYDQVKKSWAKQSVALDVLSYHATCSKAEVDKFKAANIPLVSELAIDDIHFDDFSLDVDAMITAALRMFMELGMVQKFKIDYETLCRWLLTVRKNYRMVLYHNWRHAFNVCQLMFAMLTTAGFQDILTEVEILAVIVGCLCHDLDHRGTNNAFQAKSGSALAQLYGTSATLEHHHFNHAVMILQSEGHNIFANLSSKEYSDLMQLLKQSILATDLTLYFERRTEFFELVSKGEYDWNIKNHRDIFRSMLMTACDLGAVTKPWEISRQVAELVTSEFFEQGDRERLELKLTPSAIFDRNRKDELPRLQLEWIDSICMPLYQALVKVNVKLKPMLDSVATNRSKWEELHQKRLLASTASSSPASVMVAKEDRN
In words: Phosphodiesterase PDE11A4 enzyme assay. It is filed as biochemical. As to conditions: N=2, Example 3. An excerpt: Reference standards are run as an integral part of each assay to ensure the validity of the results obtained. Reference Compounds: • Phosphodiesterase PDE10A2 Papaverine • Phosphodiesterase PDE11A4 Dipyridamole • Phosphodiesterase PDE1A MMPX • Phosphodiesterase PDE2A EHNA • Phosphodiesterase PDE3A Cilostamide • Phosphodiesterase PDE4A1A Rolipram • Phosphodiesterase PDE4B1 Rolipram • Phosphodiesterase PDE5A Zaprinast • Phosphodiesterase PDE6 Zaprinast • Phosphodiesterase PDE7A IBMX • Phosphodiesterase PDE7B IBMX • Phosphodiesterase PDE8A1 Dipyridamole • Phosphodiesterase PDE9A2 Zaprinast
Phosphodiesterase PDE4A1A; Phosphodiesterase PDE4B1; Phosphodiesterase PDE10A2; Phosphodiesterase PDE11A4; Phosphodiesterase PDE2A; Phosphodiesterase PDE3A; Phosphodiesterase PDE7A; Phosphodiesterase PDE7B; and Phosphodiesterase PDE8A1: • Source: Human recombinant insect Sf9 cells • Substrate: 0.10 μM FAM-cAMP • Vehicle: 1.00% DMSO • Significance Crit.: ≥50% of max stimulation or inhibition • Incubation Buffer: 10 mM Tris-HCl, pH 7.2, 10 mM MgCl2, 0.05% NaN3, 0.1% phosphate-free BSA • Quantitation Method: Quantitation of Fluorescein-AMP-IMAP • Pre-Incub. Time/Temp: 15 minutes @25° C. • Incubation Time/Temp: 30 minutes @25° C.
IC50 values are determined by a non-linear, least squares regression analysis using MathIQ™ (ID Business Solutions Ltd., UK). […]

Setting [2] is: topical 0.5%, ear skin, vs IMQ control.
The mark [3] stands for this setting: topical 0.5%, maximum score 16, vs IMQ control.

Consider one molecule from patent US12622915B2, “Methods of treating PDE IV-mediated diseases or conditions” (Vanda Pharmaceuticals Inc., priority 2020, dated 2026).

In general, inhibition refers to the relative decrease from the control value, in per cent.

As to `CNc1nc(Nc2ccccc2)nc(OCC(F)(F)C(F)F)n1` [compound of Formula (I), N^2-methyl-N^4-phenyl-6-(2,2,3,3-tetrafluoropropoxy)-1,3,5-triazine-2,4-diamine], the “MPO activity in ear tissue homogenates” value with IMQ induced psoriasis (day 6, topical 0.5%, vs IMQ control) is “do not show significant inhibition”. In addition, the Back skin thickness result in the series with IMQ induced psoriasis (day 6 at termination, topical 0.5%, vs IMQ control) was “do not show significant reduction”. The “Body weight / body weight loss” value in the series on IMQ induced psoriasis (mouse, in vivo) is “significantly less”. Also, the “Cumulative clinical scores (erythema, skin thickness, scales)” value in the series on IMQ induced psoriasis (topical 0.5%, back skin, maximum score 12, vs IMQ control) is listed as “does not show any significant reduction”. For the same molecule, the “Extent of acanthosis, back skin (histopathology)” value with IMQ induced psoriasis (topical 0.5%, back skin, vs IMQ control) is listed as “reduction”. Besides, the Ear thickness entry in the series on IMQ induced psoriasis (topical 0.5%, daily, vs IMQ control) is “significant reduction in ear thickness on day 6”. Further, in the series on IMQ induced psoriasis (setting [2]), the “Cellular infiltration, ear (histopathology)” value is “significant reduction” and the “Extent of acanthosis, ear (histopathology)” value is reported as “significant reduction”. Moreover, in the series on IMQ induced psoriasis (setting [3]), the “Cumulative HP score of back skin” value is “significant reduction” and the “Overall cumulative HP scores of ear skin” value is “significant reduction”. Moreover, the “Spleen weight or normalized spleen weight” value in the series with IMQ induced psoriasis (topical 0.5%, vs IMQ control) is “do not show significant reduction”. In the series with IMQ induced psoriasis (topical treatment, vs IMQ control), the “Cytokine levels in ear tissue homogenates” value was “significant reduction in few of the proinflammatory cytokines”. Moreover, the inhibition at 10 µM in series [1] was found to be 14%.
